Reference: patent US20240059738A1, “SWITCHING PEPTIDE AND MULTIPLEX IMMUNOASSAY METHOD USING SAME” (OPTOLANE TECHNOLOGIES INC., priority 2021, published 2024)

Key:
Anti-CRP antibody(r) = experiment: Antigen-induced release of fluorescently labeled peptide from immobilized antibody (Table 2), CRP antigen; assay type: binding; conditions: anti-CRP antibody (rabbit)
L2 peptide = experiment: FRET interaction between H1 and L2 peptides on microplate; assay type: binding; conditions: with increasing concentration of H1 peptide; FAM/TAMRA labels
From the text: FIG. 4A is diagrams illustrating a method for confirming a specific interaction between L1 and H2 peptides and a specific interaction between L2 and H1 peptides and the measurement results thereof, and FIG. 4B is diagrams for explaining a specific interaction between L1 and H2 peptides and a specific interaction between L2 and H1 peptides analyzed using PyMOL software. Here, at the ends of the L1 and L2 peptides, a first fluorescent label, FAM (λex=488 nm, λem=532 nm) was modified, and at the ends of the H1 and H2 peptides, a second fluorescent label, TAMRA λex=532 nm, λem=570 nm) was modified. Meanwhile, the first peptide (L1 or L2) was immobilized on a parylene-H-coated microplate through a covalent bond between a formyl group of parylene-H and a primary amine group of a lysine residue in the peptide, and the second peptide (H2 or H1) was incubated with the immobilized first peptide (L1 or L2) to allow specific interactions between them.

Anti-HRP antibody(r) = experiment: Antigen-induced release of fluorescently labeled peptide from immobilized antibody (Table 2), HRP antigen; assay type: binding, rabbit
Anti-hCG antibody(m) = experiment: Antigen-induced release of fluorescently labeled peptide from immobilized antibody (Table 2), hCG antigen; assay type: binding; conditions: anti-hCG antibody (mouse)
[1] = Net charge of switching peptides at pH 6.0 to 8.0; assay type: physicochemical; conditions: pH 6.0 to 7.0; histidine residue pKa 6.02
Experimental: Regarding the antibody binding properties of the switching peptides at pH 6.0 to 8.0, a net charge of H1 and L2 peptides decreased to 0.5 at pH 6.0 to 7.0 due to a histidine residue with a pKa value of 6.02. In addition, the net charge of the H2 and L2 peptides decreased to 0.5 at pH 7.0 to 8.0 due to a cysteine residue with a pKa value of 8.18. […] Therefore, the immunoassay was performed by selecting an L1 peptide having specific dissociation from hepatitis B surface antigen-antibody binding and stability within a pH range of human serum immunoassay.

Anti-HBsAg antibody(g) = experiment: Antigen-induced release of fluorescently labeled peptide from immobilized antibody (Table 2), HBsAg antigen; assay type: binding, goat
[2] = tested on: anti-HRP antibody from a rabbit; experiment: One-step immunoassay with varying HRP concentration (FIGS. 7A-7C); assay type: binding; conditions: HRP 0.3 to 100 μM
From the text: FIG. 7A is a schematic diagram for explaining an immunoassay method using fluorescently labeled peptide compounds of Example 1, and FIGS. 7B and 7C are graphs illustrating the fluorescence intensities in a solution and at a bottom of the microplate depending on a concentration of the antigen measured by the immunoassay method illustrated in FIG. 7A. In this experiment, an anti-HRP antibody from a rabbit immobilized on a microplate was used as the binding antibody and HRP was used as the antigen.

[3] = tested on: rabbit anti-HRP antibodies (Fab region); experiment: Papain treatment of immobilized antibody with bound fluorescently labeled switching peptide (FIG. 6B); assay type: binding; conditions: after papain treatment compared to before
From the text: FIG. 6A is a schematic diagram illustrating states before and after treatment of the antibody to which the four types of peptides of Example 1 were bound, respectively, with papain, which is a protease, and FIG. 6B is graphs illustrating a fluorescence intensity measured at a bottom (B) of the microplate and in a solution (S) after the papain treatment. In the case of this experiment, after immobilization of the antibodies (rabbit anti-HRP antibodies) on the microplate, binding between the antibody and the switching peptide was induced by treatment with a fluorescently labeled switching peptide, the unbound switching peptide was removed, and then the Fab region was hydrolyzed from the immobilized antibodies by adding papain, which is a protease.
Referring to FIG. 6A, the fluorescence at the bottom (B) of the microplate is expected to decrease after the papain reaction because the fluorescently labeled switching peptides are bound to the Fab region of antibodies, and the fluorescence in the solution is expected to increase because the Fab region to which the switching peptide is bound is hydrolyzed and dissolved into the solution. This prediction is proven to be true from the graphs of FIG. 6B.

[4] = anti-HRP antibody (rabbit), HRP
[5] = anti-HBsAg antibody (goat), HBsAg

SYWIHWVKQRPGQGLEWIGE [H1, SYWIH WVKQR PGQGL EWIGE]
Bottom (B) of microplate Change (%) (Anti-CRP antibody(r)): −26.8% | In solution (S) Change (%) (Anti-CRP antibody(r)): +152% | fluorescence intensity Bottom (B) of microplate After antigen binding (Anti-CRP antibody(r)): 3595 | fluorescence intensity Bottom (B) of microplate Before antigen binding (Anti-CRP antibody(r)): 4912 | fluorescence intensity In solution (S) After antigen binding (Anti-CRP antibody(r)): 5659 | fluorescence intensity In solution (S) Before antigen binding (Anti-CRP antibody(r)): 2242 | FRET intensity (L2 peptide): increase | remaining fluorescence intensity at plate bottom after antigen binding (% of before) (Anti-HRP antibody(r); anti-HRP antibodies from rabbits, after antigen): 12.3% | Bottom (B) of microplate Change (%) (Anti-HRP antibody(r); [4]): −87.7% | fluorescence intensity Bottom (B) of microplate After antigen binding (Anti-HRP antibody(r); [4]): 1451 | fluorescence intensity Bottom (B) of microplate Before antigen binding (Anti-HRP antibody(r); [4]): 11840 | fluorescence intensity In solution (S) After antigen binding (Anti-HRP antibody(r); [4]): 21965 | fluorescence intensity In solution (S) Before antigen binding (Anti-HRP antibody(r); [4]): 2596 | Bottom (B) of microplate Change (%) (Anti-hCG antibody(m)): −65.6% | In solution (S) Change (%) (Anti-hCG antibody(m)): +206% | fluorescence intensity Bottom (B) of microplate After antigen binding (Anti-hCG antibody(m)): 1940 | fluorescence intensity Bottom (B) of microplate Before antigen binding (Anti-hCG antibody(m)): 5646 | fluorescence intensity In solution (S) After antigen binding (Anti-hCG antibody(m)): 3921 | fluorescence intensity In solution (S) Before antigen binding (Anti-hCG antibody(m)): 1281 | net charge [1]: 0.5 | fluorescence intensity remaining at bottom of plate after antigen (% of before) (Anti-HBsAg antibody(g); anti-HBsAg antibodies from goats, after antigen): 41.1% | Bottom (B) of microplate Change (%) (Anti-HBsAg antibody(g); [5]): −58.9% | fluorescence intensity Bottom (B) of microplate After antigen binding (Anti-HBsAg antibody(g); [5]): 4618 | fluorescence intensity Bottom (B) of microplate Before antigen binding (Anti-HBsAg antibody(g); [5]): 11225 | fluorescence intensity In solution (S) After antigen binding (Anti-HBsAg antibody(g); [5]): 11453 | fluorescence intensity in the solution depending on the concentration of the antigen (HRP) [2]: increase | Kd ([2]; estimated, read-out: Equilibrium dissociation constants): 1650 nM | decrease of fluorescence intensity at the bottom of the microplate [3]: 84.3% | increase of fluorescence intensity in the solution [3]: 2,184%
